Source: patent US12286437B2, “Cardiac sarcomere inhibitors” (Cytokinetics, Inc., priority 2021, dated 2025)

What was measured:
CYP2C9 = target: T1, CYP2C9 (Homo sapiens, UniProt P11712); experiment: Time-dependent inhibition of CYP2C9 in human liver microsomes; type: in vitro ADME; conditions: for (% Activity NADPH T0)/(% Activity NADPH T30): fold change; for activity at 30 min, 25 µM / activity at 0 min, 25 µM / activity at 30 min, 50 µM / activity at 0 min, 50 µM: pooled human liver microsomes, human liver microsomes; for activity at 30 min, 25 µM / activity at 30 min, 50 µM: after 30 minutes incubation, read-out: % Activity NADPH T30; for activity at 0 min, 25 µM / activity at 0 min, 50 µM: time zero, read-out: % Activity NADPH T0
T1 construct: Pooled human microsomes and selective CYP probe substrates were used; from tissue; host or cells: pooled human liver microsomes
Protocol: An assessment of the time-dependent Inhibitory Potential of the test compounds against Principal Human Cytochrome P450 Isozymes using Human Liver Microsomes was also carried out using standard methods (Grimm et al, Drug Metab. Dispos., July; 37(7):1355-70. doi: 10.1124/dmd.109.026716, 2009). Pooled human microsomes and selective CYP probe substrates were used for in vitro assessment of test compounds at 25 and 50 μM as time-dependent inhibitors of […] human hepatic cytochrome P450 isozymes (CYP1A2, 2B6, 2C9, 2C19, 2D6, and 3A4). LC-MS/MS was used to quantify metabolite formation. The inhibition of each P450 enzyme in human liver microsomes was measured as the percentage decrease in the activity of marker metabolite formation as measured by LC-MS/MS compared to non-inhibited controls (=100% activity) at time zero and after 30 minutes incubation. The occurrence of any time dependent inhibition was then expressed as the fold change in enzyme activity at time zero relative to the activity after 30 minutes incubation.

[1] = Monkey cassette dosing pharmacokinetics; type: in vivo; conditions: IV; for clearance / Vd: male, plasma; for Vd: read-out: Vss
[2] = Mouse single dose pharmacokinetics; type: in vivo, C57BL/6 mice; conditions: male, C57BL/6, plasma, 0.5 mg/kg, IV; for Vd: read-out: Vss; for half-life: read-out: t½ (converted)
Protocol: Male C57BL/6 mice (18-25 g, 6-8 weeks old) were obtained from Zhejiang Vital River Laboratory Animal Technology Co., Ltd. All animals for IV administration had free access to food and water. The IV dosing was performed through tail vein. The IV dose solution for the Test Articles was prepared in 10% DMA/20% PG/70% HPβCD solution (40% w/v aqueous HPβCD) at a concentration of 0.1 mg/mL. The oral dosing suspension was prepared by suspending Test Article in 0.5% HPMC/0.1% Tween 80 in water at a concentration 0.2 mg/mL. Concentrations of IV and PO doses were measured at the end of the study. Pharmacokinetic (PK) parameters were calculated using the nominal dose values if the measured values were within 20% of the nominal values. A group of 15 mice received the IV dose where the volume was 5 mL/kg. Another group of 15 mice received by oral gavage of Test Article at 1 mg/kg. The oral dose volume was 5 mL/kg. Sparse blood samples were collected from groups of three mice via retro-orbital bleeding, placed into a K2EDTA microtainer tube and maintained on ice until centrifugation to obtain plasma. Each designated group of mice were bled at two-time points. The time points were predose (PO only), 5 (IV only), 15, 30 minutes, 1, 2, 4, 6, 8 and 24 hours postdose. Blood samples were centrifuged and the collected plasma was stored at −80° C. until analysis. Plasma samples were analyzed for Test Article concentrations using an LC/MS/MS method. Briefly, a 50 μL aliquot of each plasma sample was mixed with 100 μL of acetonitrile that contained an internal standard (IS). The mixture was vortexed and centrifuged. Ten (10) μL of the resulting solution was injected onto a reverse-phase C18 column and the resultant peaks detected on a LC/MS/MS equipped with a turbo ionspray ionization source. Sample concentrations below the limit of quantification (BLQ) were treated as zero for PK calculations. Composite PK parameters were estimated from a maximum of two sampling points per mouse and three mice per sampling point and the sparse data option of WinNonlin was used for noncompartmental analysis of the concentration-time data (Phoenix WinNonLin software, version 64; Pharsight, Mountain View, CA). The elimination rate constant (k) was calculated as the absolute value of the slope of the linear regression of logarithm of the concentration versus time for the last three data points of the concentration-time profiles. Apparent elimination half-life (t1/2) values were calculated as ln(2)/k. Area under the concentration-time curve (AUC) values were estimated using linear trapezoidal method. AUCt values were calculated from the dosing time to the last measurable concentration. AUC∞ values were calculated as the sum of the corresponding AUCt and the ratio of the last detectable concentration divided by k. Plasma clearance (CL) was calculated from Dose/AUC∞. Mean resident time (MRT) was estimated by moment analysis. Volume of distribution at steady state (Vss) was calculated from MRT∞×CL. Maximum concentration (Cmax) and time to reach Cmax (tmax) were recorded as observed. Bioavailability was calculated dAUC∞,po/dAUC∞,iv×100% where dAUC was the dose normalized AUC value. Data for compounds tested are provided in Table B. Compounds tested were prepared in accordance with the synthetic procedures described herein.

T1 sequence (P11712 whole entry): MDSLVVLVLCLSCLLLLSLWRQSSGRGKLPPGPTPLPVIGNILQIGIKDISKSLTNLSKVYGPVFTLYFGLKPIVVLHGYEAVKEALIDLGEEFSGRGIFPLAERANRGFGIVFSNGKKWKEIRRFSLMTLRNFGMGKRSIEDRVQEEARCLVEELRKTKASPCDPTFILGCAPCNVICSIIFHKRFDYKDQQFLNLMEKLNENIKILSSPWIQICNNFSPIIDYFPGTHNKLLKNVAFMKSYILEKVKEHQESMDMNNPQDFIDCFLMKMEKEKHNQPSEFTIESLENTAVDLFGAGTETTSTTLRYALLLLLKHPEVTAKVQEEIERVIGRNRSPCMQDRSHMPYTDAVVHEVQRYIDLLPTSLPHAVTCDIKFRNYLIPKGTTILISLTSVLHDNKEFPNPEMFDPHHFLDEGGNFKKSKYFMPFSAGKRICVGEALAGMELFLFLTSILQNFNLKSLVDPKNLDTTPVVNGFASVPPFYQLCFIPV

| SMILES | (% Activity NADPH T0)/(% Activity NADPH T30) (CYP2C9; CYP2C9, 25 μM) | (% Activity NADPH T0)/(% Activity NADPH T30) (CYP2C9; CYP2C9, 50 μM) | activity at 30 min, 25 µM (CYP2C9; CYP2C9, 25 μM) [%] | activity at 0 min, 25 µM (CYP2C9; CYP2C9, 25 μM) [%] | activity at 30 min, 50 µM (CYP2C9; CYP2C9, 50 μM) [%] | activity at 0 min, 50 µM (CYP2C9; CYP2C9, 50 μM) [%] | t l/2 [1] [h] | clearance [1] [mL/min/kg] | Vd [1] [L/kg] | clearance [2] [mL/min/kg] | Vd [2] [L/kg] | half-life [2] [h] | (% Activity NADPH T0)/(% Activity NADPH T30) (CYP2C9; CYP2C9, 50 μM, listed as compound 7) |
| --- | --- | --- | --- | --- | --- | --- | --- | --- | --- | --- | --- | --- | --- |
| C[C@H]1CC[C@H](N2CC(=O)N(Cc3ccc(Cl)cc3)C3(CN(C(N)=O)C3)C2=O)CC1 [Compound 18, 5-(4-chlorobenzyl)-8-((1r,4r)-4-methylcyclohexyl)-6,9-dioxo-2,5,8-triazaspiro[3.5]nonane-2-carboxamide] | 0.9 | 1.2 | 47 | 44 | 27 | 32 | 8.04 | 12.5 | 10.2 | 21 | 2.95 | 1.18 | – |
| CC(C)N1CC(=O)N(Cc2ccc(C(F)(F)F)cc2)C2(CN(c3cccnn3)C2)C1=O [Compound 13, 8-isopropyl-2-(pyridazin-3-yl)-5-(4-(trifluoromethyl)benzyl)-2,5,8-triazaspiro[3.5]nonane-6,9-dione] | 0.9 | 1.0 | 114 | 107 | 109 | 111 | 1.83 | 21.4 | 3.15 | 101 | 2.25 | 0.46 | – |
| C[C@H]1CC[C@H](N2CC(=O)N(Cc3ccc(F)c(Cl)c3)C3(CN(C(N)=O)C3)C2=O)CC1 [Compound 7, 5-(3-chloro-4-fluorobenzyl)-8-((1r,4r)-4-methylcyclohexyl)-6,9-dioxo-2,5,8-triazaspiro[3.5]nonane-2-carboxamide] | 1.3 | 1.4 | 75 | 94 | 61 | 87 | 12.5 | 10.2 | 9.12 | 15 | 2.95 | 2.5 | 1.3 |
| CC(C)N1CC(=O)N(Cc2ccc(Cl)c(F)c2)C2(CN(c3cccnn3)C2)C1=O [Compound 8, 5-(4-chloro-3-fluorobenzyl)-8-isopropyl-2-(pyridazin-3-yl)-2,5,8-triazaspiro[3.5]nonane-6,9-dione] | 1.0 | 1.0 | 107 | 104 | 109 | 112 | 3.72 | 20.2 | 4.76 | 132 | 5.14 | 0.66 | – |
| Cc1cc(CN2C(=O)CN([C@H]3CC[C@H](C)CC3)C(=O)C23CN(C(N)=O)C3)ccc1F [Compound 6, 5-(4-fluoro-3-methylbenzyl)-8-((1r,4r)-4-methylcyclohexyl)-6,9-dioxo-2,5,8-triazaspiro[3.5]nonane-2-carboxamide] | 1.2 | 1.0 | 41 | 48 | 33 | 34 | 8.07 | 12.3 | 6.29 | 28.2 | 2.52 | 1.27 | – |
| C[C@H]1CC[C@H](N2CC(=O)N(Cc3ccc(F)c(F)c3)C3(CN(C=O)C3)C2=O)CC1 [Compound 4, 5-(3,4-difluorobenzyl)-8-((1r,4r)-4-methylcyclohexyl)-6,9-dioxo-2,5,8-triazaspiro[3.5]nonane-2-carbaldehyde] | 1.0 | 0.9 | – | – | – | – | 8.69 | – | – | – | – | – | – |
| C[C@H]1CC[C@H](N2CC(=O)N(Cc3ccc(F)c(F)c3)C3(CN(C(N)=O)C3)C2=O)CC1 [Compound 5, 5-(3,4-difluorobenzyl)-8-((1r,4r)-4-methylcyclohexyl)-6,9-dioxo-2,5,8-triazaspiro[3.5]nonane-2-carboxamide] | 0.8 | 1.0 | 79 | 62 | 64 | 62 | 8.2 | 19 | 10.2 | 18.9 | 4.08 | 3.08 | – |
